In the NIST ThermoML archive (doi:10.1016/j.jct.2011.02.003):
± gives the expanded uncertainty stated by the source.

Legend:
[1] = Crystal; DTA
[2] = Molar enthalpy of transition or fusion; details: Crystal; DSC

Structure (SMILES)	Normal melting temperature [1]	Molar enthalpy of transition or fusion [2]
Nc1ccccc1O [2-hydroxybenzenamine]	175.57 ± 0.93 °C	6.39 ± 1.91 kcal/mol
C[C@]12CCC(=O)C=C1CC[C@@H]1[C@@H]2CC[C@@]2(C)[C@H]1CC[C@]2(C)O [17-methyltestosterone]	164.19 ± 0.71 °C	5.98 ± 1.79 kcal/mol
